Patent US20240360146A1, “BRUTON'S TYROSINE KINASE AND MUTANT DEGRADER, COMPOSITION AND APPLICATION THEREOF” (HANGZHOU HEALZEN THERAPEUTICS CO., LTD., priority 2021, published 2024)

Molecular target: T1, BTK (Homo sapiens, UniProt Q06187)
T1 construct: endogenous in cells; host or cells: Mino cells
Assay: BTK degradation activity test in Mino cells
Format: cell-based
Details: 16 h incubation, Western blot or Elisa
Summary of the method: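 Mino cells treated with a concentration series of compound for 16 h, then lysed; total protein by BCA. BTK quantified by Western blot or ELISA, degradation rate calculated against blank control, and DC50 fitted from the degradation curve.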

T1 sequence (Q06187 whole entry): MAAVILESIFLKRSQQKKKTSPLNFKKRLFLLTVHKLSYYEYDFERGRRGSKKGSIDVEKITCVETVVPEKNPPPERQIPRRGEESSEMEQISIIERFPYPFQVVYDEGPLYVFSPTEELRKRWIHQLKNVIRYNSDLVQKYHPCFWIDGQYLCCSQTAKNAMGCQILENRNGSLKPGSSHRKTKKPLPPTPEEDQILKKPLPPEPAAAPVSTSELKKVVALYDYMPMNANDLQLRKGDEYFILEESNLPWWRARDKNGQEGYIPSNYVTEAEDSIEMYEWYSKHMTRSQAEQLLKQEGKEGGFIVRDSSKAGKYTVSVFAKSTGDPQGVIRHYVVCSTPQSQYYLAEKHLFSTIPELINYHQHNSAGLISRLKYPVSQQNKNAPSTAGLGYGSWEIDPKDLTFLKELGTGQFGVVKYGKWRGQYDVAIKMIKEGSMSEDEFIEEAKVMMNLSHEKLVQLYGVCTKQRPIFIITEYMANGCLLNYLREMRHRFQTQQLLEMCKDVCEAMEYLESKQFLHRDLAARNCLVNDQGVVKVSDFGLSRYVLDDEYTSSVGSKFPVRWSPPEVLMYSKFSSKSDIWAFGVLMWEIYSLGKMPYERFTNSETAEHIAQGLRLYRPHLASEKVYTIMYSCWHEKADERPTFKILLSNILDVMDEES

SMILES	DC50
NC(=O)c1nnc(N2CCCC(N3CCN(c4ccccc4)C3=O)C2)nc1Nc1ccc(N2CCN(CC3CCN(c4ccc5c(c4)C(=O)N(C4CCC(=O)NC4=O)C5=O)CC3)CC2)cc1 (centres unmarked) [Compound 095, 5-((4-(4-((1-(2-(2,6-dioxopiperidin-3-yl)-1,3-dioxoisoindol-5-yl)piperidin-4-yl)methyl)piperazin-1-yl)phenyl)amino)-3-(3-(2-oxo-3-phenylimidazolin-1-yl)piperidin-1-yl)-1,2,4-triazin-6-carboxamide]	< 1 nM
NC(=O)c1nnc(N2CCCC(N3CCN(c4ccccc4)C3=O)C2)nc1Nc1ccc(C2CCN(C3CCN(c4ccc5c(c4)C(=O)N(C4CCC(=O)NC4=O)C5=O)CC3)CC2)cc1 (centres unmarked) [Compound 096, 5-((4-(1′-(2-(2,6-dioxopiperidin-3-yl)-1,3-dioxoisoindol-5-yl)-[1,4′-bipiperidin]-4-yl)phenyl)amino)-3-(3-(2-oxo-3-phenylimidazolin-1-yl)piperidin-1-yl)-1,2,4-triazin-6-carboxamide]	< 1 nM
NC(=O)c1nnc(N2CCCC(N3CCN(c4ccccc4)C3=O)C2)nc1Nc1ccc(N2CCC(N3CCN(CC#Cc4ccc5c(c4)CN(C4CCC(=O)NC4=O)C5=O)CC3)CC2)cc1 (centres unmarked) [Compound 097]	> 1 nM
NC(=O)c1nnc(N2CCCC(N3CCN(c4ccccc4)C3=O)C2)nc1Nc1ccc(C2CCN(CC3CCN(c4cc5c(cc4F)C(=O)N(C4CCC(=O)NC4=O)C5=O)CC3)CC2)cc1 (centres unmarked) [Compound 098, 5-((4-(1-((1-(2-(2,6-dioxopiperidin-3-yl)-6-fluoro-1,3-dioxoisoindol-5-yl)piperidin-4-yl)methyl)piperidin-4-yl)phenyl)amino)-3-(3-(2-oxo-3-phenylimidazolin-1-yl)piperidin-1-yl)-1,2,4-triazin-6-carboxamide]	< 1 nM
NC(=O)c1nnc(N2CCCC(N3CCN(c4ccccc4)C3=O)C2)nc1Nc1ccc(C2CCN(CC3CCN(c4ccc5c(c4)C(=O)N(C4CCC(=O)NC4=O)C5)CC3)CC2)cc1 (centres unmarked) [Compound 099, 5-((4-(1-((1-(2-(2,6-dioxopiperidin-3-yl)-3-oxoisoindol-5-yl)piperidin-4-yl)methyl)piperidin-4-yl)phenyl)amino)-3-(3-(2-oxo-3-phenylimidazolin-1-yl)piperidin-1-yl)-1,2,4-triazin-6-carboxamide]	< 1 nM
NC(=O)c1nnc(N2CCCC(N3CCN(c4ccccc4)C3=O)C2)nc1Nc1ccc(C2CCN(CC3CCN(c4ccc5c(c4)CN(C4CCC(=O)NC4=O)C5=O)CC3)CC2)cc1 (centres unmarked) [Compound 100, 5-((4-(1-((1-(2-(2,6-dioxopiperidin-3-yl)-1-oxoisoindol-5-yl)piperidin-4-yl)methyl)piperidin-4-yl)phenyl)amino)-3-(3-(2-oxo-3-phenylimidazolin-1-yl)piperidin-1-yl)-1,2,4-triazin-6-carboxamide]	< 1 nM
Cn1c(=O)n(C2CCC(=O)NC2=O)c2ccc(N3CCC(CN4CCC(c5ccc(Nc6nc(N7CCCC(N8CCN(c9ccccc9)C8=O)C7)nnc6C(N)=O)cc5)CC4)CC3)cc21 (centres unmarked) [Compound 101]	< 1 nM
CN1CCN(C2CC3CC2N(c2nnc(C(N)=O)c(Nc4ccc(C5CCN(CC6CCN(c7ccc8c(c7)C(=O)N(C7CCC(=O)NC7=O)C8=O)C6)CC5)cc4)n2)C3)C1=O (centres unmarked) [Compound 102, 5-((4-(1-((1-(2-(2,6-dioxopiperidin-3-yl)-1,3-dioxoisoindol-5-yl)pyrrolidin-3-yl)methyl)piperidin-4-yl)phenyl)amino)-3-(6-(3-methyl-2-oxoimidazolin-1-yl)-2-azabicyclo[2.2.1]heptan-2-yl)-1,2,4-triazin-6-carboxamide]	< 1 nM
CN1CCN(C2CC3CC2N(c2nnc(C(N)=O)c(Nc4ccc(C5CCN(C6CN(c7ccc8c(c7)C(=O)N(C7CCC(=O)NC7=O)C8=O)C6)CC5)cc4)n2)C3)C1=O (centres unmarked) [Compound 103, 5-((4-(1-(1-(2-(2,6-dioxopiperidin-3-yl)-1,3-dioxoisoindol-5-yl)azetidin-3-yl)piperidin-4-yl)phenyl)amino)-3-(6-(3-methyl-2-oxoimidazolin-1-yl)-2-azabicyclo[2.2.1]heptan-2-yl)-1,2,4-triazin-6-carboxamide]	< 1 nM
CN1CCN(C2CC3CC2N(c2nnc(C(N)=O)c(Nc4ccc(C5(C)CCN(C6CCN(c7ccc8c(c7)C(=O)N(C7CCC(=O)NC7=O)C8=O)CC6)CC5)cc4)n2)C3)C1=O (centres unmarked) [Compound 104, 5-((4-(1′-(2-(2,6-dioxopiperidin-3-yl)-1,3-dioxoisoindol-5-yl)-4-methyl-[1,4′-bipiperidin]-4-yl)phenyl)amino)-3-(6-(3-methyl-2-oxoimidazolin-1-yl)-2-azabicyclo[2.2.1]heptan-2-yl)-1,2,4-triazin-6-carboxamide]	< 1 nM
CN1CCN(C2CC3CC2N(c2nnc(C(N)=O)c(Nc4ccc(C5(C)CCN(C6CN(c7ccc8c(c7)C(=O)N(C7CCC(=O)NC7=O)C8=O)C6)CC5)cc4)n2)C3)C1=O (centres unmarked) [Compound 105, 5-((4-(1-(1-(2-(2,6-dioxopiperidin-3-yl)-1,3-dioxoisoindol-5-yl)azetidin-3-yl)-4-methylpiperidin-4-yl)phenyl)amino)-3-(6-(3-methyl-2-oxoimidazolin-1-yl)-2-azabicyclo[2.2.1]heptan-2-yl)-1,2,4-triazin-6-carboxamide]	< 1 nM
CN1CCN(C2CC3CC2N(c2nnc(C(N)=O)c(Nc4ccc5c(c4)CCN(C4CN(c6ccc7c(c6)C(=O)N(C6CCC(=O)NC6=O)C7=O)C4)C5)n2)C3)C1=O (centres unmarked) [Compound 106, 5-((2-(1-(2-(2,6-dioxopiperidin-3-yl)-1,3-dioxoisoindol-5-yl)azetidine-3-yl)-1,2,3,4-tetrahydroisoquinolin-6-yl)amino)-3-(6-(3-methyl-2-oxoimidazolin-1-yl)-2-azabicyclo[2.2.1]heptan-2-yl)-1,2,4-triazin-6-carboxamide]	< 1 nM
CN1CCN(C2CC3CC2N(c2nnc(C(N)=O)c(Nc4ccc5c(c4)CCN(CC4CCN(c6ccc7c(c6)C(=O)N(C6CCC(=O)NC6=O)C7=O)CC4)C5)n2)C3)C1=O (centres unmarked) [Compound 107, 5-((2-((1-(2-(2,6-dioxopiperidin-3-yl)-1,3-dioxoisoindol-5-yl)piperidin-4-yl)methyl)-1,2,3,4-tetrahydroisoquinolin-6-yl)amino)-3-(6-(3-methyl-2-oxoimidazolin-1-yl)-2-azabicyclo[2.2.1]heptan-2-yl)-1,2,4-triazin-6-carboxamide]	< 1 nM
CN1CCN(C2CC3CC2N(c2nnc(C(N)=O)c(Nc4ccc(N5CCN(CC6CCN(c7ccc8c(c7)C(=O)N(C7CCC(=O)NC7=O)C8=O)CC6)CC5)cc4)n2)C3)C1=O (centres unmarked) [Compound 108, 5-((4-(4-((1-(2-(2,6-dioxopiperidin-3-yl)-1,3-dioxoisoindol-5-yl)piperidin-4-yl)methyl)piperazin-1-yl)phenyl)amino)-3-(6-(3-methyl-2-oxoimidazolin-1-yl)-2-azabicyclo[2.2.1]heptan-2-yl)-1,2,4-triazin-6-carboxamide]	> 1 nM
CN1CCN(C2CC3CC2N(c2nnc(C(N)=O)c(Nc4ccc(C5CCN(C6CCN(c7ccc8c(c7)C(=O)N(C7CCC(=O)NC7=O)C8=O)CC6)CC5)cc4)n2)C3)C1=O (centres unmarked) [Compound 109, 5-((4-(1′-(2-(2,6-dioxopiperidin-3-yl)-1,3-dioxoisoindol-5-yl)-[1,4′-bipiperidin]-4-yl)phenyl)amino)-3-(6-(3-methyl-2-oxoimidazolin-1-yl)-2-azabicyclo[2.2.1]heptan-2-yl)-1,2,4-triazin-6-carboxamide]	< 1 nM
CN1CCN(C2CC3CC2N(c2nnc(C(N)=O)c(Nc4ccc(N5CCC(N6CCN(CC#Cc7ccc8c(c7)CN(C7CCC(=O)NC7=O)C8=O)CC6)CC5)cc4)n2)C3)C1=O (centres unmarked) [Compound 110]	< 1 nM
CN1CCN(C2CC3CC2N(c2nnc(C(N)=O)c(Nc4ccc(C5CCN(CC6CCN(c7cc8c(cc7F)C(=O)N(C7CCC(=O)NC7=O)C8=O)CC6)CC5)cc4)n2)C3)C1=O (centres unmarked) [Compound 111, 5-((4-(1-((1-(2-(2,6-dioxopiperidin-3-yl)-6-fluoro-1,3-dioxoisoindol-5-yl)piperidin-4-yl)methyl)piperidin-4-yl)phenyl)amino)-3-(6-(3-methyl-2-oxoimidazolin-1-yl)-2-azabicyclo[2.2.1]heptan-2-yl)-1,2,4-triazin-6-carboxamide]	< 1 nM
CN1CCN(C2CC3CC2N(c2nnc(C(N)=O)c(Nc4ccc(C5CCN(CC6CCN(c7ccc8c(c7)C(=O)N(C7CCC(=O)NC7=O)C8)CC6)CC5)cc4)n2)C3)C1=O (centres unmarked) [Compound 112, 5-((4-(1-((1-(2-(2,6-dioxopiperidin-3-yl)-3-oxoisoindol-5-yl)piperidin-4-yl)methyl)piperidin-4-yl)phenyl)amino)-3-(6-(3-methyl-2-oxoimidazolin-1-yl)-2-azabicyclo[2.2.1]heptan-2-yl)-1,2,4-triazin-6-carboxamide]	< 1 nM
CN1CCN(C2CC3CC2N(c2nnc(C(N)=O)c(Nc4ccc(C5CCN(CC6CCN(c7ccc8c(c7)CN(C7CCC(=O)NC7=O)C8=O)CC6)CC5)cc4)n2)C3)C1=O (centres unmarked) [Compound 113, 5-((4-(1-((1-(2-(2,6-dioxopiperidin-3-yl)-1-oxoisoindol-5-yl)piperidin-4-yl)methyl)piperidin-4-yl)phenyl)amino)-3-(6-(3-methyl-2-oxoimidazolin-1-yl)-2-azabicycloheptan-2-yl)-1,2,4-triazin-6-carboxamide]	< 1 nM
CN1CCN(C2CC3CC2N(c2nnc(C(N)=O)c(Nc4ccc(C5CCN(CC6CCN(c7ccc8c(c7)n(C)c(=O)n8C7CCC(=O)NC7=O)CC6)CC5)cc4)n2)C3)C1=O (centres unmarked) [Compound 114, 5-((4-(1-((1-(1-(2,6-dioxopiperidin-3-yl)-3-methyl-2-oxo-2,3-dihydro-1H-benzo[d]imidazol-5-yl)piperidin-4-yl)methyl)piperidin-4-yl)phenyl)amino)-3-(6-(3-methyl-2-oxoimidazolin-1-yl)-2-azabicyclo[2.2.1]heptan-2-yl)-1,2,4-triazin-6-carboxamide]	< 1 nM
